Assay results taken from ChEMBL document CHEMBL5465560, “Selectivity Literature for EUbOPEN Chemogenomic Library” (2024).

What was measured:
[1] = molecular target: Hepatocyte growth factor-like protein (Homo sapiens) (UniProt P26927); assay: Selectivity interaction (KinomeScan (DiscoverX)) EUB0000595a MST1; details: at 10 µM
[2] = molecular target: Serine/threonine-protein kinase 16 (Homo sapiens, UniProt O75716); assay: Selectivity interaction (KinomeScan (DiscoverX)) EUB0000666a STK16; details: at 10 µM
[3] = molecular target: T1, Dual specificity mitogen-activated protein kinase kinase 6 (Homo sapiens) (UniProt P52564); assay: Selectivity interaction (Kinase screening (Upstate/Millipore)) EUB0000604a MAP2K6
T1 sequence (whole entry): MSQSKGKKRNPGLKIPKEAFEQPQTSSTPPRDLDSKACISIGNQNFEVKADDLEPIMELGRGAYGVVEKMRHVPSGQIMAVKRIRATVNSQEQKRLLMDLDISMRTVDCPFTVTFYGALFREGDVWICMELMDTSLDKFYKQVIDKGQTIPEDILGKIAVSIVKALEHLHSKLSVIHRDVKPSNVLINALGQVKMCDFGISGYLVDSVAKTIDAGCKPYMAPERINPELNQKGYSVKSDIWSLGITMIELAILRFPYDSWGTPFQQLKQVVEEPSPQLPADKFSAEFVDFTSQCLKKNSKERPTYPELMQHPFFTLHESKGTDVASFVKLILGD

[4] = molecular target: T2, Aurora kinase A (Homo sapiens) (UniProt O14965); assay: Selectivity interaction (KinomeScan (DiscoverX)) EUB0001049a STK6; details: at 1 µM
T2 sequence (whole entry): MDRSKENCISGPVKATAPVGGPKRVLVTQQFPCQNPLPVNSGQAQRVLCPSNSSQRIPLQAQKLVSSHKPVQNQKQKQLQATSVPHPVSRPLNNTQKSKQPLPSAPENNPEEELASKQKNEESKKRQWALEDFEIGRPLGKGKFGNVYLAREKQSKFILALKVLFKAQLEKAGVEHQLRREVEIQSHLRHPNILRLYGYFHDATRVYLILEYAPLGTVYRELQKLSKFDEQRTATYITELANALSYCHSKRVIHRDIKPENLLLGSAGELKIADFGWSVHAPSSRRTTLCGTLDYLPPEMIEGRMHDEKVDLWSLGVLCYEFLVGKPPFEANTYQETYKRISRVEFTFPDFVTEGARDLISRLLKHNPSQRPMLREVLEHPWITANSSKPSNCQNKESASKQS

[5] = molecular target: T3, Inhibitor of nuclear factor kappa-B kinase subunit epsilon (Homo sapiens) (UniProt Q14164); details: at 1 µM
T3 sequence (whole entry): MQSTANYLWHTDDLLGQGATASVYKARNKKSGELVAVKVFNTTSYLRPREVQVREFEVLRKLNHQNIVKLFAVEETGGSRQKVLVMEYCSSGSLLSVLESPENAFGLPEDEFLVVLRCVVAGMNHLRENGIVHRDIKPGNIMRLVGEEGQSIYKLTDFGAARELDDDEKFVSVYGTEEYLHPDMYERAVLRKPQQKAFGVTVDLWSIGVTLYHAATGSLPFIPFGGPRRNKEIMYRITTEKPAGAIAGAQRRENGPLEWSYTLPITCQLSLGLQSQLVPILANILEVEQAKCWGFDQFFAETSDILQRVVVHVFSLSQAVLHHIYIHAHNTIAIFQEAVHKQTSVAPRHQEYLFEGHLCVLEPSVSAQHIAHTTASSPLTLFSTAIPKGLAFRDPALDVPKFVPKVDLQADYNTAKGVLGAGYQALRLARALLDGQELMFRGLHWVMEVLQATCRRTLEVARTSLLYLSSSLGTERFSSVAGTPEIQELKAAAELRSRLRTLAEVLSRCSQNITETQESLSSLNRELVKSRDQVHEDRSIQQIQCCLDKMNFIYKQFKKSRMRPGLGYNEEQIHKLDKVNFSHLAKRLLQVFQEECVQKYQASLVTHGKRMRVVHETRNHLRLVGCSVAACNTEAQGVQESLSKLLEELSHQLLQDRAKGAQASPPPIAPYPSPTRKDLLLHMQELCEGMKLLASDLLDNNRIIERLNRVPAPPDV

[6] = molecular target: Homeodomain-interacting protein kinase 1 (Homo sapiens, UniProt Q86Z02); assay: Selectivity interaction (ProQinase) EUB0000171b HIPK1
[7] = molecular target: Serine/threonine-protein kinase tousled-like 2 (Homo sapiens) (UniProt Q86UE8); assay: Selectivity interaction (ProQinase) EUB0000171b TLK2
[8] = molecular target: cAMP-dependent protein kinase catalytic subunit beta (Homo sapiens) (UniProt P22694); assay: Selectivity interaction (KinomeScan (DiscoverX)) EUB0000618a PRKACB; details: at 10 µM
[9] = molecular target: Mitogen-activated protein kinase 1 (Homo sapiens, UniProt P28482); assay: Selectivity interaction (ActivX KiNativ screen (kinase selectivity in THP-1 cell lysates)) EUB0000639a MAPK1; type: subcellular; details: lysate, at 5 µM
[10] = molecular target: Citron Rho-interacting kinase (Homo sapiens) (UniProt O14578); assay: Selectivity interaction (KinomeScan (DiscoverX)) EUB0000655a CIT; details: at 10 µM
[11] = molecular target: T4, Membrane-associated tyrosine- and threonine-specific cdc2-inhibitory kinase (Homo sapiens) (UniProt Q99640); assay: Selectivity interaction (KinomeScan (DiscoverX)) EUB0000655a PKMYT1; details: at 10 µM
T4 sequence (whole entry): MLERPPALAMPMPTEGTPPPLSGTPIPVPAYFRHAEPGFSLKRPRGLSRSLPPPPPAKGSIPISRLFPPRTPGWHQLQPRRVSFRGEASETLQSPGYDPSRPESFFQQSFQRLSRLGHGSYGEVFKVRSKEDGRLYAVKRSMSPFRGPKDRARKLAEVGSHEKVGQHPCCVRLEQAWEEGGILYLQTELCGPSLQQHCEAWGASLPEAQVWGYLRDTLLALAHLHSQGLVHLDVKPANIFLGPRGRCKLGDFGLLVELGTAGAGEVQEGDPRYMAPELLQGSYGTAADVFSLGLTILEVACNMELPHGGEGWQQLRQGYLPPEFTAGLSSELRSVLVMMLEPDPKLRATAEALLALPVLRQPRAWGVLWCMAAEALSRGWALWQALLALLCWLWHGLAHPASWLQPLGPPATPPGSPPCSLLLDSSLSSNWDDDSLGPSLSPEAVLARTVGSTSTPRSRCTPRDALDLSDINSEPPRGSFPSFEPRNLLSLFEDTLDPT

[12] = tested on: Mast/stem cell growth factor receptor Kit (Homo sapiens), P10721 [V559D,T670I]; details: at 10 µM
[13] = molecular target: Calcium/calmodulin-dependent protein kinase type 1D (Homo sapiens) (UniProt Q8IU85); details: at 10 µM
Calcium/calmodulin-dependent protein kinase type 1D (Homo sapiens), sequence (Q8IU85 whole entry, looked up): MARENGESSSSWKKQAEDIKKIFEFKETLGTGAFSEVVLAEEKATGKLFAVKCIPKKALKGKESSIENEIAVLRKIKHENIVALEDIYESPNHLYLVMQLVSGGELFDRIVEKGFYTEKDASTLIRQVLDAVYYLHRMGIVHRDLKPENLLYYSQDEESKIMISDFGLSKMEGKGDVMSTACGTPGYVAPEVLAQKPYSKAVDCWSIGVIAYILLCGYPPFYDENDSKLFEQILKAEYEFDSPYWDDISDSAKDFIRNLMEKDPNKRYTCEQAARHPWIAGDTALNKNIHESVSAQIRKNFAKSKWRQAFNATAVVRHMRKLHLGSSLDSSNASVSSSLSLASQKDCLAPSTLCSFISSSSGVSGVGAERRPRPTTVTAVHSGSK

Serine/threonine-protein kinase tousled-like 2 (Homo sapiens), sequence (Q86UE8 whole entry, looked up): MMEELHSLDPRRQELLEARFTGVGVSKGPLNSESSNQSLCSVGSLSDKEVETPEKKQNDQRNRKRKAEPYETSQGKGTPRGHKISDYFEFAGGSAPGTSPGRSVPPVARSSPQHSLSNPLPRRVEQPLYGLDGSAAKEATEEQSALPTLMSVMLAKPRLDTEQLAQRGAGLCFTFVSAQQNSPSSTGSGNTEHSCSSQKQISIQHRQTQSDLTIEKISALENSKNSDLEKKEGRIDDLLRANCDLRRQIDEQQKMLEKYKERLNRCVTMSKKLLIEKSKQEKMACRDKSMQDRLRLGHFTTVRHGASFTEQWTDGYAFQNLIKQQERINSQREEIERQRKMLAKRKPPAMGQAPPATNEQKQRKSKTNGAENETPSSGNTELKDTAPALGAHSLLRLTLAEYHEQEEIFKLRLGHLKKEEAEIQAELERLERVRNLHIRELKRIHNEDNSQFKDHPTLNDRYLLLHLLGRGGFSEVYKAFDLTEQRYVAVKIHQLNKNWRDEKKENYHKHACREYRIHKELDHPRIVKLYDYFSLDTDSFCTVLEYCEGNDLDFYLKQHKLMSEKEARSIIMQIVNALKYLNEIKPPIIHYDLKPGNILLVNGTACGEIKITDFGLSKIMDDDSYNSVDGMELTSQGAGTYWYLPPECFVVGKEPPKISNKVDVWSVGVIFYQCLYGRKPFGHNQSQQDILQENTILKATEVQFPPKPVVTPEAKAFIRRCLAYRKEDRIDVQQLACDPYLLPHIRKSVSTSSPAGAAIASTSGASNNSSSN
Homeodomain-interacting protein kinase 1, sequence (Q86Z02 whole entry, looked up): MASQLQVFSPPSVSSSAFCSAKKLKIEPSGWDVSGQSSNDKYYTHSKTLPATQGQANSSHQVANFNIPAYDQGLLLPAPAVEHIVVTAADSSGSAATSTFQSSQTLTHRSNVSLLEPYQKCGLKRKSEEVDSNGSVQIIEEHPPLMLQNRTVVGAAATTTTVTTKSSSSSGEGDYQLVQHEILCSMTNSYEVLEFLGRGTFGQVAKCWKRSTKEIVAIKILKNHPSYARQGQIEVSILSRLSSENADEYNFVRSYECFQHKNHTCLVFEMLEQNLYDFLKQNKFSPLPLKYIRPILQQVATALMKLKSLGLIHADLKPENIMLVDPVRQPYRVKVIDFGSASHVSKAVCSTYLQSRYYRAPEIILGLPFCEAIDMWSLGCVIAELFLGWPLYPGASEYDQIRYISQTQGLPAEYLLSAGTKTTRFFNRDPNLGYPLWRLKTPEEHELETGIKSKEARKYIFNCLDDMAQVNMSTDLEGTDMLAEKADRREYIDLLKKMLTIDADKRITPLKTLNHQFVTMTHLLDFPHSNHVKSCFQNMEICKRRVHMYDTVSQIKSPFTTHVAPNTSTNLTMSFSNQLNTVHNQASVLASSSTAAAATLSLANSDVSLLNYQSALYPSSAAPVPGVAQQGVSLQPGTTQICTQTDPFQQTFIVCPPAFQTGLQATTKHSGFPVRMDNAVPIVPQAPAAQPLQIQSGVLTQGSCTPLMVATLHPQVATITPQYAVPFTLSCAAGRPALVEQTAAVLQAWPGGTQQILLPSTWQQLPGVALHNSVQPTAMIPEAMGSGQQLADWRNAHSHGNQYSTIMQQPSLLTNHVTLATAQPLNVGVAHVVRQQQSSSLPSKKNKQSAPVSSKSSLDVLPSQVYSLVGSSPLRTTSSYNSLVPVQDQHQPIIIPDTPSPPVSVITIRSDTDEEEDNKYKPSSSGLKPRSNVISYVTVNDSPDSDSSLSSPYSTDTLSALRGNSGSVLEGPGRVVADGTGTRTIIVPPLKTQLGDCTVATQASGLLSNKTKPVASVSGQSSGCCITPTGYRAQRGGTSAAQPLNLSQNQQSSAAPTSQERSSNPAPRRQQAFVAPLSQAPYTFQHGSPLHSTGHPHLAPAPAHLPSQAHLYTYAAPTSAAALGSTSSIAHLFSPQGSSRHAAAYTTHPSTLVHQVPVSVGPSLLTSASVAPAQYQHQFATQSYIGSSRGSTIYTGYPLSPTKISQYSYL
Mast/stem cell growth factor receptor Kit (Homo sapiens), P10721 [V559D,T670I], sequence (P10721 whole entry V559D/T670I): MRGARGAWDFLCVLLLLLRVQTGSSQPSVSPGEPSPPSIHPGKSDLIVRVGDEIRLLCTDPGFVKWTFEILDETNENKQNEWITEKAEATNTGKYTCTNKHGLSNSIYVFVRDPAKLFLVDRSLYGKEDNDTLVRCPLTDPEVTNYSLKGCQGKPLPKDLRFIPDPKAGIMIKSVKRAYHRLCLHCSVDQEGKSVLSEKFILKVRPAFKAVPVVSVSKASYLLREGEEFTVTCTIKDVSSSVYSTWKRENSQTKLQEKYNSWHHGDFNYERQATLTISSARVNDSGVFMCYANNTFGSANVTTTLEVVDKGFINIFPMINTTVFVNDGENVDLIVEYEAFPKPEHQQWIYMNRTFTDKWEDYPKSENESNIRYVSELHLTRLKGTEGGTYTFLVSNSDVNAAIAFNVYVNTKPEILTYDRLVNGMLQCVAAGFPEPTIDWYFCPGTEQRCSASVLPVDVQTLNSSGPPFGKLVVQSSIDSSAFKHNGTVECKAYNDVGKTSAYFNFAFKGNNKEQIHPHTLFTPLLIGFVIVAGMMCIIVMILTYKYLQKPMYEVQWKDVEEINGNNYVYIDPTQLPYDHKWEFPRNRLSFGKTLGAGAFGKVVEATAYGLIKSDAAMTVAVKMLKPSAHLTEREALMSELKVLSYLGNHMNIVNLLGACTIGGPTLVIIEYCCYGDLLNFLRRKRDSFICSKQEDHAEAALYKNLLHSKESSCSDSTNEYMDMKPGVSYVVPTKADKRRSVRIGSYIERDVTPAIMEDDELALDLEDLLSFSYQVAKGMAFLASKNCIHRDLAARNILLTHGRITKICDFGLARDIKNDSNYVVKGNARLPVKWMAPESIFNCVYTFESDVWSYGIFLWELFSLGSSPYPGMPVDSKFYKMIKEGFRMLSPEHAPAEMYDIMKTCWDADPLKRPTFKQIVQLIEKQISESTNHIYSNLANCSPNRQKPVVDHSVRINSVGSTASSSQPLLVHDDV
Mitogen-activated protein kinase 1, sequence (P28482 whole entry): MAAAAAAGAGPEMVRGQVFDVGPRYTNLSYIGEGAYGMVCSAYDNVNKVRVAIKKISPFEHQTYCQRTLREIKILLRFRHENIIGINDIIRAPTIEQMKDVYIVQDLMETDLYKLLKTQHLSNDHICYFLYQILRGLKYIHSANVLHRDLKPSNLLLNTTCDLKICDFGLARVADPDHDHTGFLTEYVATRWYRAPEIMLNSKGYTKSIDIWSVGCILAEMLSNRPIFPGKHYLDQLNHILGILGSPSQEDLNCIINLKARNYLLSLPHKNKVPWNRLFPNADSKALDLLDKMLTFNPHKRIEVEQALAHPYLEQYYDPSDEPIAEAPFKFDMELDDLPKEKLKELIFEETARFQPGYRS
Serine/threonine-protein kinase 16, sequence (O75716 whole entry): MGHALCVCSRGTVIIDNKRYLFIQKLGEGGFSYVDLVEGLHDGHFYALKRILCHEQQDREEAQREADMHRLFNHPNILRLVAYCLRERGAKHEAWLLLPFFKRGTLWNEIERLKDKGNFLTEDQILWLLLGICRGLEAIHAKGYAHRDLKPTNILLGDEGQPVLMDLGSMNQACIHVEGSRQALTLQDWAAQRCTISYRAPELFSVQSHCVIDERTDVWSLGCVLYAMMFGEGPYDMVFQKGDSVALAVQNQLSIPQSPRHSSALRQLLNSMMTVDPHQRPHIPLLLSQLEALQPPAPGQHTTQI

Compound: COCC(=O)NC/C=C/c1ccc2ncnc(Nc3ccc(Oc4ccc(C)nc4)c(C)c3)c2c1 [CP-724714]
- % of control [1]: 87%

Compound: O=C(NOC[C@H](O)CO)c1ccc(F)c(F)c1Nc1ccc(I)cc1F
- % of control [2]: 99%

Compound: Cc1cnc(Nc2ccc(F)cc2Cl)nc1-c1c[nH]c(C(=O)N[C@H](CO)c2cccc(Cl)c2)c1
- % of inhibition [3]: 9%

Compound: COc1cc(Nc2nc(C)cc(-c3cnn4nc(OC)ccc34)n2)cc(C(F)(F)F)c1
- % of control [4]: 93%

Compound: Cc1ccc(-c2ccc3c(ccc4sc5c(c43)NC[C@@H](C)NC5=O)n2)cn1
- % of inhibition [5]: 11%

Compound: C=CC(=O)Nc1cccc(C(=O)Nc2ccc(Nc3cc(-c4[nH]c(SC)nc4C)ccn3)cc2)c1
- % of control ([6]; at 1 µM): 103%
- % of control ([6]; at 5 µM): 143%
- % of control ([7]; at 1 µM): 92%
- % of control ([7]; at 5 µM): 83%

Compound: O[C@H]1CC[C@H](Nc2ncc3nc(Nc4c(F)cc(F)cc4F)n([C@H]4CCOC4)c3n2)CC1
- % of control [8]: 100%

Compound: CC[C@@H]1[C@H](F)C(=O)N[C@@H]1COc1nccc2cc(C(N)=O)c(OC)cc12 [ZIMLOVISERTIB]
- % of inhibition [9]: 25.2%

Compound: CN(C)CCOc1ccc(-c2nc(-c3ccncc3)c(-c3ccc4c(c3)CC/C4=N\O)[nH]2)cc1
- % of control [10]: 0.8%
- % of control [11]: 100%

Compound: CCN(CC)CCCCNc1ncc2cc(-c3cc(OC)cc(OC)c3)c(NC(=O)NC(C)(C)C)nc2n1
- % of control [12]: 100%
- % of control [13]: 100%
